# In the NIST ThermoML archive (doi:10.1021/je900550v):
# ± gives the expanded uncertainty stated by the source.
# Conditions: 101.33 kPa, Liquid; for speed of sound: Pulse-echo method; for mass density: Vibrating tube method
smiles,measurement,setting,value
CCC(=O)[O-].C[NH2+]CCO [2-hydroxy-N-methylethanaminium propionate],speed of sound,322.91 K,1616.7 ± 2.1 m/s
same,mass density,322.91 K,1054.99 ± 2.2 kg/m3
same,viscosity,323.15 K,55.1 ± 1.4 mPa·s
same,speed of sound,323.16 K,1616 ± 2.1 m/s
same,mass density,323.16 K,1054.82 ± 2.2 kg/m3
same,speed of sound,323.41 K,1615.2 ± 2.1 m/s
same,mass density,323.41 K,1054.65 ± 2.2 kg/m3
same,speed of sound,323.65 K,1614.5 ± 2.1 m/s
same,mass density,323.65 K,1054.48 ± 2.2 kg/m3
same,speed of sound,323.91 K,1613.7 ± 2.1 m/s
same,mass density,323.91 K,1054.31 ± 2.2 kg/m3
same,speed of sound,324.16 K,1613 ± 2.1 m/s
same,mass density,324.16 K,1054.15 ± 2.2 kg/m3
same,speed of sound,324.41 K,1612.2 ± 2.1 m/s
same,mass density,324.41 K,1053.97 ± 2.2 kg/m3
same,speed of sound,324.65 K,1611.4 ± 2.1 m/s
same,mass density,324.65 K,1053.81 ± 2.2 kg/m3
same,speed of sound,324.9 K,1610.7 ± 2.1 m/s
same,mass density,324.9 K,1053.64 ± 2.2 kg/m3
same,speed of sound,325.16 K,1609.9 ± 2.1 m/s
same,mass density,325.16 K,1053.47 ± 2.2 kg/m3
same,speed of sound,325.4 K,1609.2 ± 2.1 m/s
same,mass density,325.4 K,1053.3 ± 2.2 kg/m3
same,speed of sound,325.66 K,1608.4 ± 2.1 m/s
same,mass density,325.66 K,1053.13 ± 2.2 kg/m3
same,speed of sound,325.9 K,1607.7 ± 2.1 m/s
same,mass density,325.9 K,1052.96 ± 2.2 kg/m3
same,speed of sound,326.16 K,1606.9 ± 2.1 m/s
same,mass density,326.16 K,1052.79 ± 2.2 kg/m3
same,speed of sound,326.41 K,1606.2 ± 2.1 m/s
same,mass density,326.41 K,1052.62 ± 2.2 kg/m3
same,speed of sound,326.66 K,1605.4 ± 2.1 m/s
same,mass density,326.66 K,1052.45 ± 2.2 kg/m3
same,speed of sound,326.9 K,1604.7 ± 2.1 m/s
same,mass density,326.9 K,1052.29 ± 2.2 kg/m3
same,speed of sound,327.16 K,1603.9 ± 2.1 m/s
same,mass density,327.16 K,1052.12 ± 2.2 kg/m3
same,speed of sound,327.4 K,1603.2 ± 2.1 m/s
same,mass density,327.4 K,1051.94 ± 2.2 kg/m3
same,speed of sound,327.66 K,1602.4 ± 2.1 m/s
same,mass density,327.66 K,1051.78 ± 2.2 kg/m3
same,speed of sound,327.9 K,1601.7 ± 2.1 m/s
same,mass density,327.9 K,1051.61 ± 2.2 kg/m3
same,speed of sound,328.15 K,1600.9 ± 2.1 m/s
same,mass density,328.15 K,1051.44 ± 2.2 kg/m3
same,speed of sound,328.41 K,1600.2 ± 2.1 m/s
same,mass density,328.41 K,1051.27 ± 2.2 kg/m3
same,speed of sound,328.66 K,1599.4 ± 2.1 m/s
same,mass density,328.66 K,1051.1 ± 2.2 kg/m3
same,speed of sound,328.9 K,1598.6 ± 2.1 m/s
same,mass density,328.9 K,1050.93 ± 2.2 kg/m3
same,speed of sound,329.16 K,1597.9 ± 2.1 m/s
same,mass density,329.16 K,1050.76 ± 2.2 kg/m3
same,speed of sound,329.4 K,1597.1 ± 2.1 m/s
same,mass density,329.4 K,1050.59 ± 2.2 kg/m3
same,speed of sound,329.65 K,1596.4 ± 2.1 m/s
same,mass density,329.65 K,1050.42 ± 2.2 kg/m3
same,speed of sound,329.9 K,1595.6 ± 2.1 m/s
same,mass density,329.9 K,1050.24 ± 2.2 kg/m3
same,speed of sound,330.16 K,1594.9 ± 2.1 m/s
same,mass density,330.16 K,1050.07 ± 2.2 kg/m3
same,speed of sound,330.41 K,1594.1 ± 2.1 m/s
same,mass density,330.41 K,1049.9 ± 2.2 kg/m3
same,speed of sound,330.66 K,1593.3 ± 2.1 m/s
same,mass density,330.66 K,1049.73 ± 2.2 kg/m3
same,speed of sound,330.91 K,1592.6 ± 2.1 m/s
same,mass density,330.91 K,1049.56 ± 2.2 kg/m3
same,speed of sound,331.16 K,1591.8 ± 2.1 m/s
same,mass density,331.16 K,1049.39 ± 2.2 kg/m3
same,speed of sound,331.41 K,1591.1 ± 2.1 m/s
same,mass density,331.41 K,1049.22 ± 2.2 kg/m3
same,speed of sound,331.66 K,1590.3 ± 2.1 m/s
same,mass density,331.66 K,1049.05 ± 2.2 kg/m3
same,speed of sound,331.91 K,1589.5 ± 2.1 m/s
same,mass density,331.91 K,1048.88 ± 2.2 kg/m3
same,speed of sound,332.16 K,1588.8 ± 2.1 m/s
same,mass density,332.16 K,1048.71 ± 2.2 kg/m3
same,speed of sound,332.41 K,1588 ± 2.1 m/s
same,mass density,332.41 K,1048.54 ± 2.2 kg/m3
same,speed of sound,332.66 K,1587.3 ± 2.1 m/s
same,mass density,332.66 K,1048.36 ± 2.2 kg/m3
same,speed of sound,332.91 K,1586.5 ± 2.1 m/s
same,mass density,332.91 K,1048.19 ± 2.2 kg/m3
same,speed of sound,333.16 K,1585.7 ± 2.1 m/s
same,mass density,333.16 K,1048.02 ± 2.2 kg/m3
same,speed of sound,333.41 K,1585 ± 2.1 m/s
same,mass density,333.41 K,1047.85 ± 2.2 kg/m3
same,speed of sound,333.66 K,1584.2 ± 2.1 m/s
same,mass density,333.66 K,1047.68 ± 2.2 kg/m3
same,speed of sound,333.91 K,1583.5 ± 2.1 m/s
same,mass density,333.91 K,1047.51 ± 2.2 kg/m3
same,speed of sound,334.16 K,1582.7 ± 2.1 m/s
same,mass density,334.16 K,1047.33 ± 2.2 kg/m3
same,speed of sound,334.41 K,1582 ± 2.1 m/s
same,mass density,334.41 K,1047.16 ± 2.2 kg/m3
same,speed of sound,334.66 K,1581.2 ± 2.1 m/s
same,mass density,334.66 K,1046.99 ± 2.2 kg/m3
same,speed of sound,334.91 K,1580.5 ± 2.1 m/s
same,mass density,334.91 K,1046.82 ± 2.2 kg/m3
same,speed of sound,335.16 K,1579.7 ± 2.1 m/s
same,mass density,335.16 K,1046.64 ± 2.2 kg/m3
same,speed of sound,335.41 K,1579 ± 2.1 m/s
same,mass density,335.41 K,1046.47 ± 2.2 kg/m3
same,speed of sound,335.66 K,1578.2 ± 2.1 m/s
same,mass density,335.66 K,1046.3 ± 2.2 kg/m3
same,speed of sound,335.91 K,1577.5 ± 2.1 m/s
same,mass density,335.91 K,1046.13 ± 2.2 kg/m3
same,speed of sound,336.16 K,1576.7 ± 2.1 m/s
same,mass density,336.16 K,1045.95 ± 2.2 kg/m3
same,speed of sound,336.41 K,1576 ± 2.1 m/s
same,mass density,336.41 K,1045.78 ± 2.2 kg/m3
same,speed of sound,336.66 K,1575.2 ± 2.1 m/s
same,mass density,336.66 K,1045.61 ± 2.2 kg/m3
same,speed of sound,336.9 K,1574.4 ± 2.1 m/s
same,mass density,336.9 K,1045.44 ± 2.2 kg/m3
same,speed of sound,337.16 K,1573.7 ± 2.1 m/s
same,mass density,337.16 K,1045.27 ± 2.2 kg/m3
same,speed of sound,337.4 K,1572.9 ± 2.1 m/s
same,mass density,337.4 K,1045.09 ± 2.2 kg/m3
same,speed of sound,337.66 K,1572.1 ± 2.1 m/s
same,mass density,337.66 K,1044.92 ± 2.2 kg/m3
same,speed of sound,337.9 K,1571.3 ± 2.1 m/s
same,mass density,337.9 K,1044.75 ± 2.2 kg/m3
same,speed of sound,338.15 K,1570.6 ± 2.1 m/s
same,mass density,338.15 K,1044.58 ± 2.2 kg/m3
